Values quoted from earlier work as cited in patent US20240325349A1, “LIQUID PHARMACEUTICAL FORMULATIONS OF TOPIRAMATE” (TaP Pharmaceuticals AG, priority 2023, published 2024).
Like-named read-outs stand apart in the source and are kept apart here.

Topiramate Solubility (in Aconon C-30 (oil)): 50.7 ± 3.5 mg/mL
Topiramate Solubility (in Capmul MCM C-8 (oil)): 62.5 ± 3.9 mg/mL
Topiramate Solubility (in Capmul MCM EP (oil)): 61.4 ± 3.8 mg/mL
Topiramate Solubility (in Captex 355 (oil)): 14.5 ± 0.8 mg/mL
Topiramate Solubility (in Carbitol (cosurfactant)): 355.6 ± 29.2 mg/mL
Topiramate Solubility (in Cremophor EL (surfactant)): 78 ± 2.1 mg/mL
Topiramate Solubility (in Cremophor RH-40 (surfactant)): 46 ± 2.7 mg/mL
Topiramate Solubility (in Ethyl Oleate (oil)): 6.7 ± 0.3 mg/mL
Topiramate Solubility (in IPM (oil)): 6.7 ± 0.4 mg/mL
Topiramate Solubility (in Oleic Acid (oil)): 0.1 ± 0.1 mg/mL
Topiramate Solubility (in PEG 200 (cosurfactant)): 169.6 ± 2.3 mg/mL
Topiramate Solubility (in PEG 400 (cosurfactant)): 148.9 ± 3.5 mg/mL
Topiramate Solubility (in Sesfol 218 (oil)): 53.6 ± 2.6 mg/mL
Topiramate Solubility (in Tween 20 (surfactant)): 142.8 ± 6.4 mg/mL
Topiramate Solubility (in Tween 80 (surfactant)): 84.2 ± 3^ mg/mL
SMILES: CC1(C)O[C@@H]2[C@@H](CO[C@@]3(COS(N)(=O)=O)OC(C)(C)O[C@@H]23)O1 [Topiramate, 2,3:4,5-Di-O-isopropylidene-β-D-fructopyranose sulfamate]
